Laboratory results reported in patent US11192921B2 (priority 2017, dated 2021).
Several values for one entry are separate records, joined by “and”; a condition that tells them apart may be missing. Identical values can stand only once. Like-named read-outs stand apart in the source and are kept apart here. Marks after values point to notes of the source that are not given here. No end group written: not given here.

Columns and labels:
Female Kunming mice [1] = type: in vivo
Kunming mice [2] = type: in vivo
Kunming mice [3] = settings: mouse, in vivo
male BALB/c mice = test: cancer-induced pain (CIP) model, thermosensitive test; type: in vivo; settings: heat radiation stimulation
Procedure: Influence of Analgesic Polypeptides on Neuralgia in a Cancer-Induced Pain (CIP) Model
A number of male BALB/c mice each weighing 25-30 g were used.
Von Fery monofilament; a microsyringe, 5 mg/mL solutions of polypeptides I, II and II I; normal saline.
BALB/c mice were taken, and the right sciatic nerve was exposed; ascites containing 5×10^4 Meth A sarcoma cells were injected into the proximal nerve near the sciatic nerve trochanter far from the tendon branch of the posterior biceps, the wound was closed, and the same volume of normal saline was injected into the left side by performing a sham operation.
1.3.1 Thermosensitive Test
On the 4th, 7th, 10th and 14th days after inoculation, the latency of foot lifting caused by heat radiation stimulation to animals was observed, and the heat radiation intensity was adjusted to cause the latency of foot lifting of normal mice to be (10±2) s.
All data was expressed as M±SD and subjected to one-way ANOVA.

SD rats = test: pain threshold of trigeminal nerve (trigeminal neuralgia model); type: in vivo; settings: for highest pain threshold on the operative side / pain threshold on the opposite side: 3 h after injection; for Pain threshold: intraperitoneal
Female Kunming mice [4] = system: Female Kunming mice
Female Kunming mice [5] = system: Female Kunming mice; remark: listed apart in the source
Female Kunming mice [6] = system: Female Kunming mice; remark: listed apart in the source
[7] = 50 μg/kg, injected subcutaneously
[8] = 100 μg/kg, injected subcutaneously

KCSTPPDAVLYC (cysteine pairing not given here) [Polypeptide III, one pair of disulfide bonds formed between the two cysteines]
Pain threshold (Female Kunming mice [1]; 0 min): 29.22 ± 0.11 s
Pain threshold (Female Kunming mice [1]; mouse, in vivo, ip): 31.22 ± 0.42^∧∧ s and 33.12 ± 0.32*^∧ s and 27.23 ± 0.42^∧ s and 21.49 ± 0.45^∧ s and 32.14 ± 0.42 s and 21.43 ± 0.24 s
heat thresholds of mice compared with the normal saline negative control group (Female Kunming mice [1]; mouse, in vivo, ip): effectively increase the heat thresholds of mice
Pain threshold (tail flick) (Kunming mice [2]; 0 min): 2.31 ± 0.22 s
Pain threshold (tail flick) (Kunming mice [2]; 15 min): 2.22 ± 0.21^∧∧ s
Pain threshold (tail flick) (Kunming mice [2]; 30 min): 2.32 ± 0.12 s
Pain threshold (tail flick) (Kunming mice [2]; 45 min): 4.12 ± 0.12^∧ s
Pain threshold (tail flick) (Kunming mice [2]; 60 min): 2.12 ± 0.21 s
Pain threshold (tail flick) (Kunming mice [2]; 75 min): 2.14 ± 0.12 s
Pain threshold (tail flick) (Kunming mice [2]; 90 min): 3.12 ± 0.14 s
difference from the normal saline group during a time period (**P<0.01) (Kunming mice [2]; mouse, in vivo): significantly different from the normal saline group
analgesic effects in formalin-induced pain experiments (Kunming mice [3]): good analgesic effects
cumulative foot licking time, Phase I (Kunming mice [3]): 47.19 ± 10.21*^
cumulative foot licking time, Phase II (Kunming mice [3]): 41.23 ± 13.21
Latency of foot lifting before administration (male BALB/c mice; before administration): 9.77 ± 1.21
Latency (D) of foot lifting after administration (male BALB/c mice; day 4): 9.45 ± 1.02
Latency (D) of foot lifting after administration (male BALB/c mice; day 7): 8.88 ± 0.86
Latency (D) of foot lifting after administration (male BALB/c mice; day 10): 8.26 ± 1.21
Latency (D) of foot lifting after administration (male BALB/c mice; day 14): 6.78 ± 1.22
animal reaction thresholds (SD rats; 50 μg/kg and 100 μg/kg, injected subcutaneously): significantly increased
time the pain thresholds lasted (SD rats; [7]): 1 h
highest pain threshold on the operative side (SD rats; [7]): 2.3 ± 0.5 g
pain threshold on the opposite side (SD rats; [7]): 1.2 ± 0.2 g
time the effect on the operative side lasted (SD rats; [8]): about 8 h
highest pain threshold on the operative side (SD rats; [8]): 7.4 ± 0.9 g
pain threshold on the opposite side (SD rats; [8]): 3.2 ± 1.3 g
pain threshold change (SD rats; 300 μg/kg, subcutaneously): not significantly increased
Pain threshold (SD rats; Dose 50 (μg/kg), 0 h): 25.98 ± 0.11 s
Pain threshold (SD rats; Dose 50 (μg/kg), 1 h): 26.25 ± 0.46 s
Pain threshold (SD rats; Dose 50 (μg/kg), 2 h): 26.69 ± 0.62 s
Pain threshold (SD rats; Dose 50 (μg/kg), 3 h): 26.91 ± 0.49 s
Pain threshold (SD rats; Dose 50 (μg/kg), 4 h): 27.91 ± 0.26 s
Pain threshold (SD rats; Dose 50 (μg/kg), 5 h): 26.91 ± 0.61 s
Pain threshold (SD rats; Dose 100 (μg/kg), 0 h): 26.56 ± 0.23 s
Pain threshold (SD rats; Dose 100 (μg/kg), 1 h): 27.65 ± 0.61 s
Pain threshold (SD rats; Dose 100 (μg/kg), 2 h): 28.16 ± 0.59 s
Pain threshold (SD rats; Dose 100 (μg/kg), 3 h): 27.19 ± 0.91 s
Pain threshold (SD rats; Dose 100 (μg/kg), 4 h): 28.16 ± 0.61 s
Pain threshold (SD rats; Dose 100 (μg/kg), 5 h): 26.16 ± 0.91 s
Pain threshold (SD rats; Dose 300 (μg/kg), 0 h): 26.15 ± 0.65 s
Pain threshold (SD rats; Dose 300 (μg/kg), 1 h): 31.95 ± 0.56 s
Pain threshold (SD rats; Dose 300 (μg/kg), 2 h): 30.21 ± 0.64 s
Pain threshold (SD rats; Dose 300 (μg/kg), 3 h): 29.91 ± 0.61 s
Pain threshold (SD rats; Dose 300 (μg/kg), 4 h): 28.85 ± 0.41 s
Pain threshold (SD rats; Dose 300 (μg/kg), 5 h): 27.92 ± 0.61 s
Movement distances of mice in open field tests (Female Kunming mice [4]; 1 h): 18.27 ± 1.22^
Movement distances of mice in the center area in open field tests (Female Kunming mice [4]; 1 h): 18.57 ± 1.22^
Movement distances of mice in the peripheral area in open field tests (Female Kunming mice [4]; 1 h): 19.47 ± 1.32^
Number of entrances to the center area in open field tests (Female Kunming mice [4]; 1 h): 18.47 ± 0.32^
Number of entrances to the peripheral area in open field tests (Female Kunming mice [4]; 1 h): 18.57 ± 1.42^
Residence time in the center area in open field tests (Female Kunming mice [4]; 1 h): 18.37 ± 1.22^ s
Residence time in the peripheral area in open field tests (Female Kunming mice [4]; 1 h): 14.27 ± 1.34^ s
Movement distances of mice in open field tests (Female Kunming mice [4]; 24 h): 19.13 ± 2.38 m
Movement distances of mice in the center area in open field tests (Female Kunming mice [4]; 24 h): 18.13 ±1.38 m
Movement distances of mice in the peripheral area in open field tests (Female Kunming mice [4]; 24 h): 19.03 ± 2.48 m
Number of entrances to the center area in open field tests (Female Kunming mice [4]; 24 h): 18.23 ± 1.48
Number of entrances to the peripheral area in open field tests (Female Kunming mice [4]; 24 h): 17.13 ± 2.18
Residence time in the center area in open field tests (Female Kunming mice [4]; 24 h): 18.13 ± 1.38 s
Residence time in the peripheral area in open field tests (Female Kunming mice [4]; 24 h): 18.13 ± 1.45 s
Movement distances of mice in open field tests (Female Kunming mice [4]; Time 0): 21.28 ± 1.28 m
Movement distances of mice in the center area in open field tests (Female Kunming mice [4]; Time 0): 21.88 ±1.18 m
Movement distances of mice in the peripheral area in open field tests (Female Kunming mice [4]; Time 0): 20.98 ± 1.28 m
Number of entrances to the center area in open field tests (Female Kunming mice [4]; Time 0): 21.28 ± 1.28
Number of entrances to the peripheral area in open field tests (Female Kunming mice [4]; Time 0): 21.28 ± 1.38
Residence time in the center area in open field tests (Female Kunming mice [4]; Time 0): 21.78 ± 1.17 s
Residence time in the peripheral area in open field tests (Female Kunming mice [4]; Time 0): 21.88 ± 1.38 s
side effects compared with conotoxin (open field) (Female Kunming mice [4]; mouse, in vivo, ip): lower side effects
various indexes in open field experiments compared with the normal saline group (Female Kunming mice [4]; mouse, in vivo, ip): no significant difference
Movement duration of mice in forced swimming tests (Female Kunming mice [5]; 1 h): 18.57 ± 1.21^ s
Movement duration of mice in forced swimming tests (Female Kunming mice [5]; 24 h): 17.13 ± 1.23 s
Movement duration of mice in forced swimming tests (Female Kunming mice [5]; Time 0): 21.40 ± 1.38 s
toxic side effects compared with the conotoxin (forced swimming) (Female Kunming mice [5]; mouse, in vivo, ip): lower toxic side effects
Duration of the immobility of mice in tail suspension tests (Female Kunming mice [6]; 1 h): 20.12 ± 1.28 s
Duration of the immobility of mice in tail suspension tests (Female Kunming mice [6]; 24 h): 19.23 ± 1.84 s
Duration of the immobility of mice in tail suspension tests (Female Kunming mice [6]; Time 0): 19.28 ± 1.02 s
data of tail suspension test compared with the normal saline group (Female Kunming mice [6]; mouse, in vivo, ip): no significant difference
toxic side effects compared with the conotoxin (tail suspension) (Female Kunming mice [6]; mouse, in vivo, ip): lower toxic side effects
